According to patent publication US12679878B2, “CRF2 receptor agonists and their use in therapy” (SANOFI, priority 2020, dated 2026):
Read-outs that look alike come from different tables or passages of the source. Starred links: 1 amine or outer side, 2 acyl side, 3 side chain; linkers in the order of their positions; H or OH if unused. Non-standard residues stand in square brackets, D forms with d. Residues, ends and D or L forms follow the SMILES beside them. Groups on a side chain read outwards from the residue. *: point of attachment. C18 diacid = O=C(O)CCCCCCCCCCCCCCCCC(=O)*; γGlu = O=C(O)[C@H](CCC(=O)[*:2])N[*:1]; Palmitoyl = CCCCCCCCCCCCCCCC(=O)*; AEEA = NCCOCCOCC(=O)O; Aib = CC(C)(N)C(=O)O

Tests used:
human CRF2α receptor = biological target: T1, human CRF2α receptor (Homo sapiens, UniProt Q13324); experiment: cAMP agonism at human CRF2 α receptor in TeloHEAC cells (Example 7); type: cell-based; details: cAMP HTRF, TeloHEAC cells stably expressing human CRF2 α
T1 construct: expressed in transfected cells; host or cells: TeloHEAC
T1 sequence (Q13324 1-411): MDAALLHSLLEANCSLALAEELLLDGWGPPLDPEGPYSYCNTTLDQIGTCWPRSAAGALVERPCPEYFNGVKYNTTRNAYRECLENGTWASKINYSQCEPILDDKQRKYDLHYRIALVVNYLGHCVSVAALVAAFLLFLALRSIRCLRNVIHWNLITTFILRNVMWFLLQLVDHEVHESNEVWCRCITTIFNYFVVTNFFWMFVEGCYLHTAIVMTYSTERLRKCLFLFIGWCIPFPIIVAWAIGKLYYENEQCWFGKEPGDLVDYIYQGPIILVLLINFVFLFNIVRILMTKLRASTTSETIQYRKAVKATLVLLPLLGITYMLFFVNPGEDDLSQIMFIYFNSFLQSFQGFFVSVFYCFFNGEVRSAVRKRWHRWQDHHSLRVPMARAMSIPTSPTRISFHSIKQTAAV
Procedure, shortened: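 Percent activation was referenced to 1000 nM UCN2 (100%), and EC50 values taken as concentrations giving half of maximal response. The read-out was a homogeneous time-resolved fluorescence cAMP kit, fluorescence ratio 665/620 nm. Thawed cells (2000/well) saw compound for 30 min at RT in buffer with 2 mM IBMX and 0%/0.1% HSA.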

CRF1R receptor = biological target: T2, CRF1R receptor (Homo sapiens, UniProt P34998); experiment: cAMP activity at anti-target CRF1R, CHO-K1 cell line clone 2 (Example 19.10); type: cell-based; details: CRF1R CHO-K1 clone 2; for EC50: 0% HSA, read-out: EC50 [nM] 0% HSA; for Emax: 100% = Sauvagine at 100 nM
T2 construct: host or cells: CHO-K1 clone 2
T2 sequence (P34998 24-415): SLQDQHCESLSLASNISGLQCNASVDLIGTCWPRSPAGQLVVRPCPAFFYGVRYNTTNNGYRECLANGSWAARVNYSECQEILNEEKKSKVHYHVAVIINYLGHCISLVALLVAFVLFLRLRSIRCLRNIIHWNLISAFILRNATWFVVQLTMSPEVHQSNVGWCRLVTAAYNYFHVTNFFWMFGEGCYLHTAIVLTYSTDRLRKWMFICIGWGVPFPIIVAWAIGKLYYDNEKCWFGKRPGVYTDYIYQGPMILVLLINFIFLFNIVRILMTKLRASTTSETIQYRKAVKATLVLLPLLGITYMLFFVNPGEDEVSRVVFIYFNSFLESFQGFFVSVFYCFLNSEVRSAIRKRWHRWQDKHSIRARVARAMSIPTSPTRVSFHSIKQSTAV
Experimental: The CRF1R-overexpression CHO-K1 cell line clone 2 was purchased from PerkinElmer.
Cells were grown in a 10 cm dish at 37° C./5% CO2 in medium (F12 (Hams)/10% FBS/400 μg/ml G418) to near confluence. At that stage, cells were harvested, resuspended to 10 million/mL in culture medium without G418 and with 10% DMSO. 1 mL vial aliquots were slowly frozen to -80° C. in isopropanol and then transferred in liquid nitrogen for storage. These vials were used to run the experiment following the procedure reported 10 in the previous paragraph, except for the compound used in the control well to define the 100% activation (Sauvagine at 100 nM)

[1] = 0% HSA, read-out: EC50 [nM], 0% HSA

Compound	EC50 (human CRF2α receptor; [1])	EC50 (CRF1R receptor)	Emax (CRF1R receptor)	EC50 (human CRF2α receptor; 0.1% HSA, read-out: EC50 [nM], 0.1% HSA)
CCCCCCCCCCCCCCCC(=O)N[C@@H](CCC(=O)NCCCC[C@H](NC(=O)[C@H](CC(C)C)NC(=O)[C@H](CCCCN)NC(=O)[C@@H](NC(=O)[C@@H]1CCCN1C(=O)[C@H](NC(=O)[C@H](CC(=O)O)NC(=O)[C@H](CC(C)C)NC(=O)[C@H](CO)NC(=O)[C@H](CC(C)C)NC(=O)[C@@H](NC(=O)[C@@H](N)[C@@H](C)CC)C(C)C)C(C)C)[C@@H](C)O)C(=O)N[C@@H](CCCCN)C(=O)N[C@@H](CCCCN)C(=O)N[C@@H](CC(C)C)C(=O)N[C@@H](CC(C)C)C(=O)N[C@@H](CCCCN)C(=O)N[C@@H](CCC(N)=O)C(=O)N[C@@H](CCC(=O)O)C(=O)N[C@@H](CCCNC(=N)N)C(=O)N[C@@H](CCCCN)C(=O)N[C@@H](CCCNC(=N)N)C(=O)N[C@@H](CCCCN)C(=O)N[C@@H](CCC(=O)O)C(=O)N[C@@H](CCCNC(=N)N)C(=O)N[C@@H](CCC(=O)O)C(=O)N[C@@H](CCC(N)=O)C(=O)N[C@@H](C)C(=O)N[C@@H](CCC(=O)O)C(=O)N[C@@H](CCCCN)C(=O)N[C@@H](CC(N)=O)C(=O)N[C@@H](C)C(=O)N[C@@H](CCCNC(=N)N)C(=O)N[C@H](C(=O)N[C@@H](CC(C)C)C(=O)N[C@@H](CCC(=O)O)C(=O)N[C@@H](CCCNC(=N)N)C(=O)N[C@H](C(N)=O)C(C)C)[C@@H](C)CC)C(=O)O [compound 27] (H-IVLSLD[dV]PTKLK([γGlu-Palmitoyl])KKLLKQERKRKEREQAEKNARILERV-NH2; N-terminus assumed)	0.01 nM	> 100 nM	34.2%	–
CCCCCCCCCCCCCCCC(=O)N[C@@H](CCC(=O)NCCCC[C@H](NC(=O)[C@H](CC(C)C)NC(=O)[C@H](CCCCN)NC(=O)[C@@H](NC(=O)[C@@H]1CCCN1C(=O)[C@H](NC(=O)[C@H](CC(=O)O)NC(=O)[C@H](CC(C)C)NC(=O)[C@H](CO)NC(=O)[C@H](CC(C)C)NC(=O)[C@@H](NC(=O)[C@@H](N)[C@@H](C)CC)C(C)C)C(C)C)[C@@H](C)O)C(=O)N[C@@H](CCCCN)C(=O)N[C@@H](CCCCN)C(=O)N[C@@H](CC(C)C)C(=O)N[C@@H](CC(C)C)C(=O)N[C@@H](CCCCN)C(=O)N[C@@H](CCC(N)=O)C(=O)N[C@@H](CCC(=O)O)C(=O)N[C@@H](CCCNC(=N)N)C(=O)N[C@@H](CCCCN)C(=O)N[C@@H](CCCNC(=N)N)C(=O)N[C@@H](CCCCN)C(=O)N[C@@H](CCC(=O)O)C(=O)N[C@@H](CCCNC(=N)N)C(=O)N[C@@H](CCC(=O)O)C(=O)N[C@@H](CCCCN)C(=O)N[C@@H](C)C(=O)N[C@@H](CCC(=O)O)C(=O)N[C@@H](CCCCN)C(=O)N[C@@H](C)C(=O)N[C@@H](C)C(=O)N[C@@H](CCCNC(=N)N)C(=O)N[C@H](C(=O)N[C@@H](CC(C)C)C(=O)N[C@@H](CCC(=O)O)C(=O)N[C@@H](CCCNC(=N)N)C(=O)N[C@H](C(N)=O)C(C)C)[C@@H](C)CC)C(=O)O [compound 28] (H-IVLSLD[dV]PTKLK([γGlu-Palmitoyl])KKLLKQERKRKEREKAEKAARILERV-NH2; N-terminus assumed)	0.14 nM	> 100 nM	8.4%	–
CCCCCCCCCCCCCCCC(=O)N[C@@H](CCC(=O)NCCCC[C@H](NC(=O)[C@H](CC(C)C)NC(=O)[C@H](CCCCN)NC(=O)[C@@H](NC(=O)[C@@H]1CCCN1C(=O)[C@H](NC(=O)[C@H](CC(=O)O)NC(=O)[C@H](CC(C)C)NC(=O)[C@H](CO)NC(=O)[C@H](CC(C)C)NC(=O)[C@@H](NC(=O)[C@@H](N)[C@@H](C)CC)C(C)C)C(C)C)[C@@H](C)O)C(=O)N[C@@H](CCCCN)C(=O)N[C@@H](CCCCN)C(=O)N[C@@H](CC(C)C)C(=O)N[C@@H](CC(C)C)C(=O)N[C@@H](CCCCN)C(=O)N[C@@H](CCC(N)=O)C(=O)N[C@@H](CCC(=O)O)C(=O)N[C@@H](CCCNC(=N)N)C(=O)N[C@@H](CCCCN)C(=O)N[C@@H](CCCNC(=N)N)C(=O)N[C@@H](CCCCN)C(=O)N[C@@H](CCC(=O)O)C(=O)N[C@@H](CCCNC(=N)N)C(=O)N[C@@H](CCC(=O)O)C(=O)NC(C)(C)C(=O)N[C@@H](C)C(=O)N[C@@H](CCC(=O)O)C(=O)N[C@@H](CCCCN)C(=O)N[C@@H](C)C(=O)N[C@@H](C)C(=O)N[C@@H](CCCNC(=N)N)C(=O)N[C@H](C(=O)N[C@@H](CC(C)C)C(=O)N[C@@H](CCC(=O)O)C(=O)N[C@@H](CCCNC(=N)N)C(=O)N[C@H](C(N)=O)C(C)C)[C@@H](C)CC)C(=O)O [compound 29] (H-IVLSLD[dV]PTKLK([γGlu-Palmitoyl])KKLLKQERKRKERE[Aib]AEKAARILERV-NH2; N-terminus assumed)	0.12 nM	> 100 nM	18.4%	–
CCCCCCCCCCCCCCCC(=O)N[C@@H](CCC(=O)NCCCC[C@H](NC(=O)[C@H](CC(C)C)NC(=O)[C@H](CCCCN)NC(=O)[C@@H](NC(=O)[C@@H]1CCCN1C(=O)[C@H](NC(=O)[C@H](CC(=O)O)NC(=O)[C@H](CC(C)C)NC(=O)[C@H](CO)NC(=O)[C@H](CC(C)C)NC(=O)[C@@H](NC(=O)[C@@H](N)[C@@H](C)CC)C(C)C)C(C)C)[C@@H](C)O)C(=O)N[C@@H](CCCCN)C(=O)N[C@@H](CCCCN)C(=O)N[C@@H](CC(C)C)C(=O)N[C@@H](CC(C)C)C(=O)N[C@@H](CCCCN)C(=O)N[C@@H](CCC(N)=O)C(=O)N[C@@H](CCC(=O)O)C(=O)N[C@@H](CCCNC(=N)N)C(=O)N[C@@H](CCCCN)C(=O)N[C@@H](CCCNC(=N)N)C(=O)N[C@@H](CCCCN)C(=O)N[C@@H](CCC(=O)O)C(=O)N[C@@H](CCCNC(=N)N)C(=O)N[C@@H](CCC(=O)O)C(=O)N[C@@H](CCC(N)=O)C(=O)N[C@@H](C)C(=O)N[C@@H](CCC(=O)O)C(=O)N[C@@H](CCCCN)C(=O)N[C@@H](C)C(=O)N[C@@H](C)C(=O)N[C@@H](CCCNC(=N)N)C(=O)N[C@H](C(=O)N[C@@H](CC(C)C)C(=O)N[C@@H](CCC(=O)O)C(=O)N[C@@H](CCCNC(=N)N)C(=O)N[C@H](C(N)=O)C(C)C)[C@@H](C)CC)C(=O)O [compound 30] (H-IVLSLD[dV]PTKLK([γGlu-Palmitoyl])KKLLKQERKRKEREQAEKAARILERV-NH2; N-terminus assumed)	0.16 nM	> 100 nM	14.5%	–
CC[C@H](C)[C@H](N)C(=O)N[C@H](C(=O)N[C@@H](CC(C)C)C(=O)N[C@@H](CO)C(=O)N[C@@H](CC(C)C)C(=O)N[C@@H](CC(=O)O)C(=O)N[C@H](C(=O)N1CCC[C@H]1C(=O)N[C@H](C(=O)N[C@@H](CCCCN)C(=O)N[C@@H](CC(C)C)C(=O)N[C@@H](CCCCNC(=O)COCCOCCNC(=O)COCCOCCNC(=O)CC[C@H](NC(=O)CCCCCCCCCCCCCCCCC(=O)O)C(=O)O)C(=O)N[C@@H](CCC(N)=O)C(=O)N[C@H](C(=O)N[C@@H](CC(C)C)C(=O)N[C@@H](CC(C)C)C(=O)N[C@@H](CCCCN)C(=O)N[C@@H](CCC(N)=O)C(=O)N[C@@H](CCC(=O)O)C(=O)N[C@@H](CCCNC(=N)N)C(=O)N[C@@H](CCC(N)=O)C(=O)N[C@@H](CCCCN)C(=O)N[C@@H](CCCCN)C(=O)N[C@@H](CCC(N)=O)C(=O)N[C@@H](CCCNC(=N)N)C(=O)N[C@@H](CCC(=O)O)C(=O)N[C@@H](CCCCN)C(=O)N[C@@H](C)C(=O)N[C@@H](CCCCN)C(=O)N[C@H](C(=O)N[C@@H](CC(N)=O)C(=O)NC(C)(C)C(=O)N[C@@H](CCC(N)=O)C(=O)N[C@H](C(=O)N[C@@H](CC(C)C)C(=O)N[C@@H](C)C(=O)N[C@@H](CCC(N)=O)C(=O)N[C@H](C(N)=O)C(C)C)[C@@H](C)CC)[C@@H](C)O)[C@@H](C)CC)[C@@H](C)CC)C(C)C)C(C)C [compound 88] (H-IVLSLDVPIKLK([AEEA-AEEA-γGlu-C18 diacid])QILLKQERQKKQREKAKTN[Aib]QILAQV-NH2; N-terminus assumed)	0.68 nM	> 100 nM	2.3%	25.7 nM
